These results are taken from patent US8357350B2, “Annulus fibrosus detection in intervertebral discs using molecular imaging agents” (General Electric Company, priority 2009, dated 2013).

Structures are written as SMILES.

Data set [1] can be described thus: Absorbance and fluorescence spectra of FM fluorophores in solvents. In kind it is physicochemical. The procedure:
Absorbance and fluorescence spectra of the FM fluorophores were measured in PBS and absolute methanol (MeOH) using fiber-optic HR2000 (200-1100 nm) and USB2000FL (350-1000 nm) spectrometers (Ocean Optics, Dunedin, Fla.), respectively. Fluorescence excitation was provided by a 2 mW, 532 nm laser diode. The fluorescence and absorbance spectra of FORMULA II and FORMULA IA were collected in dimethyl sulfoxide (DMSO) and fetal bovine serum (FBS), as well as MeOH and PBS. The quantum yield of FORMULA II and FORMULA IA in DMSO, MeOH, FBS and PBS was measured by comparing the integrated fluorescence emission of the fluorophores in each solvent to the emission of Alexa Fluor 555 (Invitrogen) in PBS (quantum yield=10%) as a reference standard under conditions of matched absorbance at the excitation wavelength. The LogD of each FM fluorophore at pH 7.5 was calculated using Marvin 5.0.3 software (ChemAxon, Budapest, Hungary).

The test system of data set [2] is intervertebral discs (annulus fibrosus). Nature of the data set: Intraoperative imaging of the spine in a pig. It is filed as in vivo, Yorkshire pig. Conditions: 0.47 mg/kg IV, 5 h. The procedure: Imaging was carried out at near infrared wavelenghts using a 400- to 700-nm “white” light (0.5 mW/cm^2) and a 725- to 775-nm NIR fluorescence excitation light (5 mW/cm^2). Fluorescence images were collected using exposure times ranging from 500 to 2000 msec. All images collected for comparison between vehicle-injected control animals and FM fluorophore-injected animals had the same exposure time and normalization. Color video images were collected on a separate optical channel using custom designed software. The excitation and emission LEDs and filter used for the FM fluorophores and Pam800 in the intraoperative imaging system are described as follows. For fluorescence excitation of FM 1-43, FM 2-10, FM 1-43FX and Formula IA, sixty 5-mm 470 nm LEDs ([…], Inc., Kyoto, Japan) fitted with 470±20 nm band pass (BP) excitation filters (Chroma Technology, Rockingham, Vt.) in custom holders were used, which produced a fluence rate on the imaging surface of 0.56 mW/cm^2. For fluorescence excitation of Formula II, FM 4-64, FM 4-64FX and FM 5-95, sixty 5-mm 535 nm LEDs fitted with 525±25 nm BP excitation filters were used, which produced a fluence rate on the imaging surface of 0.34 mW/cm^2. A 610±38 nm BP filter was used to detect fluorescence emission of FM 1-43, FM 2-10, Formula II, FM 1-43FX and Formula IA. To detect fluorescence emission of FM 4-64, FM 4-64FX and FM 5-95 a 720 nm long pass (LP) filter was used. For fluorescence excitation of Pam800, 348 5-mm 760 nm LEDs fitted with 764±17 nm BP excitation filters were used, which produced a fluence rate on the imaging surface of 8.73 mW/cm^2 and fluorescence emission was detected using a 824±24 nm BP emission filter. FORMULA IA was also evaluated in a Yorkshire pig. […] The pig was monitored under anesthesia during the drug incubation period, after which the animal was sacrificed. […] Tissues from mice, rats and pig were preserved for microscopic assessment and localization of fluorescence signal. […] Exposure times were adjusted between 5 and 2000 ms for fluorescence images.

For `CCCCN(CCCC)c1ccc(/C=C/c2cc[n+](CCC[N+](C)(C)C)cc2)cc1.[Br-].[Br-]` [Formula IA, (E)-4-(4-(dibutylamino)styryl)-1-(3-(trimethylammonio)propyl)pyridinium dibromide], the “Em nm (MeOH)” value in data set [1] (emission maximum in MeOH) amounted to 624 nm. In data set [1] (emission maximum in PBS), the “Em nm (PBS)” value was 628 nm. Also, the “Ex nm (MeOH)” value in data set [1] (excitation maximum in MeOH) is recorded as 510 nm. The “Ex nm (PBS)” value in data set [1] (excitation maximum in PBS) stood at 497 nm. In addition, in data set [2], the “contrast in the intervertebral discs of the pig” value is “dramatic positive contrast”; the “origin of signal within the disc (sagittal and axial sectioning)” value was “majority of the signal was emanating from the annulus fibrosus, and not the nucleus pulposus”. In addition, the “microscopic fluorescence pattern in disc sections” value in data set [2] (fluorescence microscopy vs H&E) is “punctate and linear following the lamellae structures of the annulus fibrosus”.
